Data taken from patent US9328093B2, “Selective inhibitors of ubiquitin specific protease 7, the pharmaceutical compositions thereof and their therapeutic applications” (HYBRIGENICS SA, priority 2010, dated 2016).

Tests used:
Caspase 3 = molecular target: T1, Caspase 3 (Homo sapiens, UniProt P42574); assay: Caspase 3 activity assay (Ac-DEVD-AMC substrate); type: biochemical; settings: Ac-DEVD-AMC 250 nM, Caspase 3 1.6 nM
T1 sequence (P42574 29-175 limits assumed): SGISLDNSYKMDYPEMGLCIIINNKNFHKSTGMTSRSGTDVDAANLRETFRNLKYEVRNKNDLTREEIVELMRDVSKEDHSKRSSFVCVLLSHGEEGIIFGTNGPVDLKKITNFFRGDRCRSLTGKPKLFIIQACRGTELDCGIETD
T1 sequence (P42574 176-277 limits assumed): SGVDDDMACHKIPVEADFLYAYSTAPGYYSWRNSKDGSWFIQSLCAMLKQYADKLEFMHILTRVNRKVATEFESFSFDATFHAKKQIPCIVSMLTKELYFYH
Procedure: Caspase 3 was diluted in Caspase 3 buffer (100 mM Hepes pH 7.5; 10% sucrose; 0.1% CHAPS). Compounds stocks (100 mM) were stored at −20° C. in DMSO. Compounds were tested at different concentrations: from 200 μM to 91 nM.
Reactions were performed as duplicates in Black 384 well plates (small volume microplates; Greiner; 10 μl final reaction volume). The substrate concentration for caspase 3 specificity assay was 250 nM (Ac-DEVD-AMC; Promega). The concentration of the enzyme (Caspase 3) in specificity assays was 1.6 nM. The concentrations were determined in order to perform specificity assays under initial velocities at fixed substrate concentration. Compounds were pre-incubated with enzymes for 30 minutes at 25° C. Reactions were initiated by addition of substrate to the plates containing the enzymes (+/− compounds) diluted in assay buffer. Reactions were incubated for 60 minutes at 37° C. Reactions were stopped by adding acetic acid (100 mM final). Readings were performed on a Pherastar Fluorescent Reader (BMG). λ Emission 380 nm; λ Excitation=460 nm. Data (mean values+/− standard deviation) were analyzed as % of control (no compound) and plotted as percentage versus the Log of the compound concentration using GraphPad (Prism). Data were fitted to a sigmoidal model (variable slope).

[1] = system: HCT116 colon cancer cells; assay: HCT116 cell viability and proliferation assay (MTS); type: cell-based; settings: Homo sapiens, HCT-116, 72 h, HCT116, 72 hours, read-out: Cell viability (MTS): HCT116 GI50 Day3
In short: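 HCT116 cells (10^3/well) treated in triplicate 24 h after seeding with 50 nM–100 μM compound, 0.5% final DMSO, for 72 h at 37 °C. Viability by MTS (2 h), absorbance 492 nm; GI50 from sigmoidal variable-slope fit, mean of three independent experiments.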

IC50 (Caspase 3) [µM]	GI50 [1] [µM]	SMILES
> 200	6.9	CN1CCCC1CCNC(=O)c1ccc2c(Cl)c3c(nc2c1)CCCC3 (stereo not drawn) [Example 17, 9-chloro-N-(2-(1-methylpyrrolidin-2-yl)ethyl)-5,6,7,8-tetrahydroacridino-3-carboxamide]
> 200	4.3	O=C(NCc1cccc(CN2CCCC2)c1)c1ccc2c(Cl)c3c(nc2c1)CCCC3 [Example 18, 9-chloro-N-(3-(pyrrolidin-1-ylmethyl)benzyl)-5,6,7,8-tetrahydroacridine-3-carboxamide]
> 200	4.1	O=C(Nc1cccc(CN2CCCC2)c1)c1ccc2c(Cl)c3c(nc2c1)CCCC3 [Example 19, 9-chloro-N-(3-(pyrrolidin-1-ylmethyl)phenyl)-5.6,7,8-tetrahydroacridine-3-carboxamide]
> 200	8.4	CC1CCCCN1CCCNC(=O)c1ccc2c(Cl)c3c(nc2c1)CCCC3 (stereo not drawn) [Example 20, 9-chloro-N-(3-(2-methylpiperidin-1-yl)propyl)-516,7,8-tetrahydroacridine-3-carboxamide]
> 200	3.5	O=C(NCc1ccc(CN2CCCC2)cc1)c1ccc2c(Cl)c3c(nc2c1)CCCC3 [Example 21, 9-chloro-N-(4-(pyrrolidin-1-ylmethyl)benzyl)-5,6,7,8-tetrahydroacridine-3-carboxamide]
> 200	3.3	COc1ccc(CN2CCC(CNC(=O)c3ccc4c(Cl)c5c(nc4c3)CCCC5)CC2)cc1 [Example 22, 9-chloro-N-((1-(4-methoxybenzyl)piperidin-4-yl)methyl)-5,6,7,8-tetrahydroacridine-3-carboxamide]
> 200	1.8	CN(C)c1ccc(CN2CCC(CNC(=O)c3ccc4c(Cl)c5c(nc4c3)CCCC5)CC2)cc1 [Example 23]
> 200	8.3	O=C(NCC1CCNCC1)c1ccc2c(Cl)c3c(nc2c1)CCCC3 [Example 24, 9-chloro-N-((piperidin-4-yl)methyl)-5,6,7,8-tetrahydroacridine-3-carboxamide]
> 200	5.6	O=C(NCC(CN1CCCC1)C(O)c1ccccc1)c1ccc2c(Cl)c3c(nc2c1)CCCC3 (stereo not drawn) [Example 25, 9-chloro-N-(3-hydroxy-3-phenyl-2-pyrrolidin-1-ylmethylpropyl)-5,6,7,8-tetrahydroacridine-3-carboxamide]
